From patent publication US12227496B2 (BRISTOL-MYERS SQUIBB COMPANY, priority 2019, dated 2025)

Molecular target: T1, human FXR (Homo sapiens, UniProt Q96RI1)
T1 construct: expressed in transfected cells; host or cells: HEK293 cells stably carrying a 5xGal4-response-element firefly luciferase reporter, transiently transfected with pcDNA3.1-Gal4-FXR
T1 sequence (Q96RI1 262-486 limits assumed): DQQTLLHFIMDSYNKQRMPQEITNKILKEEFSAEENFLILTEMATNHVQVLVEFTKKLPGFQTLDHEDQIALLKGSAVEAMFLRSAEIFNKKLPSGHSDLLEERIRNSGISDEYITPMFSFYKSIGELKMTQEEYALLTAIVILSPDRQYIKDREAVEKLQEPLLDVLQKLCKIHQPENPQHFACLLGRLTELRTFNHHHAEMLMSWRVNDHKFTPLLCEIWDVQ
Assay: transient human FXR/Gal4-luciferase reporter assay
Type: cell-based
Conditions: Gal4-hFXR LBD fusion, luciferase reporter in HEK293 cells; response relative to 8 μM GW-4064
Method: A Gal4-hFXR fusion construct reporter system was used as the primary assay to characterize compound activity. A construct including 5 copies of the Gal4 promoter response element upstream of a firefly luciferase reporter cDNA was stably expressed in HEK293 cells. This reporter cell line was maintained in Dulbecco's Modified Eagle's medium (DMEM; Gibco) supplemented with 1% penicillin-streptomycin (P/S) solution, 500 μg/mL Zeocin and 10% charcoal/dextran-treated fetal bovine serum (cs-FBS) at 37° C. in a humidified 5% CO2 atmosphere. […] The day prior to transfection, the reporter cells in culture are detached from the plate with trypsin and plated into a T75 flask at a sufficient density to achieve approximately 90% confluence the next morning. […] The mixture is further diluted with 10 mL of a solution comprised of DMEM, 10% cs-FBS, and 1% P/S immediately prior to transferring to the cells. The maintenance culture media is aspirated from the cells and the final transfection mixture is added before the cells are incubated overnight at 37° C. in a humidified 5% CO2 atmosphere. This protocol can be scaled up, and the transiently transfected cells can be cryopreserved in an assay-ready format. For compound testing, 100 nL of the compounds (serial dilutions in DMSO) are dispensed with an Echo acoustic dispenser (Labcyte) into the wells of a Corning/Costar clear bottom 384-well white plate. The transfected cells are harvested, counted, and diluted such that 10-25,000 cells in 25 μL are plated into each well of the 384-well compound assay plate. The compound-treated cells are incubated overnight at 37° C. in a humidified 5% CO2 atmosphere. The next morning 25 μL of Steady-Glo (Promega) are added to each well of the plate, the mixture is incubated for 15 min. with shaking, and luminescence is measured on an Envision (Perkin Elmer) plate reader.

Compound | EC50
COc1cccc(-c2cccc(N(C(=O)C3CCCCC3)C(C)C34CCC(c5nc(C)no5)(CC3)CC4)c2)c1 (single isomer, unassigned) [Example 95, N-(3′-methoxy-[1,1′-biphenyl]-3-yl)-N-(1-(4-(3-methyl-1,2,4-oxadiazol-5-yl)bicyclo[2.2.2]octan-1-yl)ethyl)cyclohexanecarboxamide] | 6670 nM
O=C(N1CCCC(CO)C1)N(CC12CCC(c3nc(C4CC4)no3)(CC1)CC2)c1cccc(-c2nc(C3CC3)no2)c1 (racemic) [Example 65, N-((4-(3-cyclopropyl-1,2,4-oxadiazol-5-yl)bicyclo[2.2.2]octan-1-yl)methyl)-N-(3-(3-cyclopropyl-1,2,4-oxadiazol-5-yl)phenyl)-3-(hydroxymethyl)piperidine-1-carboxamide] | 740 nM
CN1CCC(C(=O)N(CC23CCC(c4nc(C5CC5)no4)(CC2)CC3)c2cccc(-c3nc(C4CC4)no3)c2)CC1 [Example 17, N-((4-(3-cyclopropyl-1,2,4-oxadiazol-5-yl)bicyclo[2.2.2]octan-1-yl)methyl)-N-(3-(3-cyclopropyl-1,2,4-oxadiazol-5-yl)phenyl)-1-methylpiperidine-4-carboxamide] | 3020 nM
O=C(C1CCCOC1)N(CC12CCC(c3nc(C4CC4)no3)(CC1)CC2)c1cccc(-c2nc3cc(F)ccc3o2)c1 (racemic) [Example 92, N-((4-(3-cyclopropyl-1,2,4-oxadiazol-5-yl)bicyclo[2.2.2]octan-1-yl)methyl)-N-(3-(5-fluorobenzo[d]oxazol-2-yl)phenyl)tetrahydro-2H-pyran-3-carboxamide] | 589 nM
O=C(C1CCS(=O)(=O)CC1)N(CC12CCC(c3nc(C4CC4)no3)(CC1)CC2)c1cccc(-c2cc(C3CC3)no2)c1 [Example 152, N-((4-(3-cyclopropyl-1,2,4-oxadiazol-5-yl)bicyclo[2.2.2]octan-1-yl)methyl)-N-(3-(3-cyclopropylisoxazol-5-yl)phenyl)tetrahydro-2H-thiopyran-4-carboxamide 1,1-dioxide] | 662 nM
COc1cc(-c2cccc(N(CC34CCC(c5nc(C)no5)(CC3)CC4)C(=O)C3CCCCC3)c2)no1 [Example 11, N-(3-(5-methoxyisoxazol-3-yl)phenyl)-N-((4-(3-methyl-1,2,4-oxadiazol-5-yl)bicyclo[2.2.2]octan-1-yl)methyl)cyclohexanecarboxamide] | 660 nM
CN1CCC(C(=O)N(CC23CCC(c4cc(C5CC5)nn4C)(CC2)CC3)c2cccc(-c3cc(C4CC4)on3)c2)CC1 [Example 133, N-((4-(3-cyclopropyl-1-methyl-1H-pyrazol-5-yl)bicyclo[2.2.2]octan-1-yl)methyl)-N-(3-(5-cyclopropylisoxazol-3-yl)phenyl)-1-methylpiperidine-4-carboxamide] | 2000 nM

These reach a lower EC50. Values come first.

EC50 | Compound
467 nM | CC(F)(F)c1nc(C23CCC(CN(C(=O)C4CCS(=O)(=O)CC4)c4cccc(-c5ccc(OC(F)F)cc5)c4)(CC2)CC3)no1 [Example 110, N-((4-(5-(1,1-difluoroethyl)-1,2,4-oxadiazol-3-yl)bicyclo[2.2.2]octan-1-yl)methyl)-N-(4′-(difluoromethoxy)-[1,1′-biphenyl]-3-yl)tetrahydro-2H-thiopyran-4-carboxamide 1,1-dioxide]
413 nM | O=C(N1CCC(F)(F)CC1)N(CC12CCC(c3nc(C4CC4)no3)(CC1)CC2)c1cccc(-c2nc(C3CC3)no2)c1 [Example 58, N-((4-(3-cyclopropyl-1,2,4-oxadiazol-5-yl)bicyclo[2.2.2]octan-1-yl)methyl)-N-(3-(3-cyclopropyl-1,2,4-oxadiazol-5-yl)phenyl)-4,4-difluoropiperidine-1-carboxamide]
242 nM | CC(F)(F)c1nc(C23CCC(CN(C(=O)C4CCC(O)(C(F)(F)F)CC4)c4cccc(-c5cc(C6CC6)on5)c4)(CC2)CC3)no1 (stereo not shown) [Example 157, N-(3-(5-cyclopropylisoxazol-3-yl)phenyl)-N-((4-(5-(1,1-difluoroethyl)-1,2,4-oxadiazol-3-yl)bicyclo[2.2.2]octan-1-yl)methyl)-4-hydroxy-4-(trifluoromethyl)cyclohexane-1-carboxamide]
